10 compounds from ChEMBL document CHEMBL3046108, “Comparison between antioxidant activity of 2,5-disubstituted 1,3,4-oxadiazoles containing heteroaromatic ring and aromatic ring at 2nd position” (Med Chem Res, 2011) can be followed below.

Molecules are shown by their SMILES. ≈ marks a conversion by molar mass, not a printed value.

Holding throughout (format): functional
Experiment [1] deals with Radical scavenging activity. As to the kind of experiment: Antioxidant activity of the compound assessed as DPPH radical scavenging activity at 2 ug/ml after 30 min.
Experiment [2] has as its system Radical scavenging activity. The experiment is described as follows: Antioxidant activity of the compound assessed as DPPH radical scavenging activity at 6 ug/ml after 30 min. In general terms: The DPPH test is a chemical assay of radical scavenging.
Experiment [3] has as its system Radical scavenging activity. As to the kind of experiment: Antioxidant activity of the compound assessed as DPPH radical scavenging activity at 10 ug/ml after 30 min.
Experiment [4] has as its system Radical scavenging activity. The experiment is described as follows: Antioxidant activity of the compound assessed as DPPH radical scavenging activity at 4 ug/ml after 30 min.
Experiment [5] has as its system Radical scavenging activity. The experiment is described as follows: Antioxidant activity of the compound assessed as DPPH radical scavenging activity after 30 min.
Experiment [6] deals with Radical scavenging activity. The experiment is described as follows: Antioxidant activity of the compound assessed as DPPH radical scavenging activity at 8 ug/ml after 30 min.

Regarding `O=[N+]([O-])c1ccc(-c2nnc(-c3ccncc3)o2)cc1`, the inhibition in experiment [1] came to 6.66%; in experiment [2], 23.2%; in experiment [3], 39.8%; in experiment [4], 14.9%; in experiment [6], 31.5%. Also, in experiment [5], the IC50 stood at 12.47 µg/mL (≈ 46.5 µM).

Consider `O=[N+]([O-])c1cccc(-c2nnc(-c3ccncc3)o2)c1`, for which the inhibition is 15% in experiment [1]; 42.5% in experiment [2]; 71.2% in experiment [3]; 28.7% in experiment [4]; 57.7% in experiment [6]. Moreover, the IC50 in experiment [5] was found to be 6.99 µg/mL (≈ 26.1 µM).

For the compound `Clc1ccc(-c2nnc(-c3ccncc3)o2)cc1`, the inhibition in experiment [1] was 12.8%; in experiment [2], 39%; in experiment [3] it was 53.8%; in experiment [4], 24.4%; in experiment [6], 43.6%. Moreover, the IC50 in experiment [5] came to 9.01 µg/mL (≈ 35 µM).

Regarding `Nc1ccc(-c2nnc(-c3ccccc3N)o2)c(O)c1`, the inhibition in experiment [1] stood at 4.98%; in experiment [2] it was 14.9%; in experiment [3], 24.9%; in experiment [4], 9.97%; in experiment [6] it was 19.9%. In experiment [5], the IC50 worked out at 20.05 µg/mL (≈ 74.7 µM).

Turning to `O=C1O[C@H]([C@@H](O)CO)C(O)=C1O` [ASCORBIC ACID], the inhibition in experiment [1] worked out at 18.2%; in experiment [2], 53.2%; in experiment [3], 87.3%; in experiment [4], 35.3%; in experiment [6] it was 69.3%. Besides, the IC50 in experiment [5] was 5.68 µg/mL (≈ 32.3 µM).

With `Nc1ccc(-c2nnc(-c3ccncc3)o2)cc1`, the inhibition in experiment [1] is 8.27%; in experiment [2], 24.8%; in experiment [3] it was 41.4%; in experiment [4] it was 16.5%; in experiment [6], 33.1%. The half-inhibitory concentration (IC50) in experiment [5] worked out at 12.08 µg/mL (≈ 50.7 µM).

With `Cc1cccc(-c2nnc(-c3ccccc3N)o2)c1O`, the inhibition in experiment [1] was 15.9%; in experiment [2], 48.8%; in experiment [3], 81.9%; in experiment [4] it was 31.9%; in experiment [6], 64.9%. Besides, the IC50 in experiment [5] is 6 µg/mL (≈ 22.4 µM).

As for `Nc1ccccc1-c1nnc(-c2ccc(Cl)cc2)o1`, the inhibition worked out at 12.3% in experiment [1]; 36.2% in experiment [2]; 59.5% in experiment [3]; 23.5% in experiment [4]; 50% in experiment [6]. Besides, the IC50 in experiment [5] came to 8.26 µg/mL (≈ 30.4 µM).

With `Nc1ccccc1-c1nnc(-c2ccccc2N)o1`, the inhibition in experiment [1] was found to be 12.1%; in experiment [2], 38.6%; in experiment [3] it was 64%; in experiment [4] it was 25.8%; in experiment [6], 52.1%. Moreover, the IC50 in experiment [5] was 7.76 µg/mL (≈ 30.8 µM).

In the case of `Nc1ccccc1-c1nnc(-c2cccc([N+](=O)[O-])c2)o1`, the inhibition in experiment [1] came out at 5.51%; in experiment [2], 19.7%; in experiment [3], 30.8%; in experiment [4] it was 14.2%; in experiment [6], 25.2%. In addition, in experiment [5], the IC50 came out at 16.04 µg/mL (≈ 56.8 µM).

For orientation: inhibition means how much of the control response was suppressed. Usually IC50 stands for the point on the concentration scale where inhibition reaches its midpoint.
